One block for each molecule: values may come before it.
Tests used:
HiCel7B [1] = biological target: T1, HiCel7B (Mycothermus thermophilus, UniProt P56680); assay: continuous fluorescence inhibition kinetics with 4MU-GG, kapp vs [inhibitor]; also intact MS and crystal structure; format: biochemical; conditions: covalent; 50 mM sodium phosphate pH 7, 25 °C; 50 μM 4MU-GG; corrected for substrate KM; nucleophile E197; read-out: HiCel7B / K I
T1 construct: gene CEL7B; purified enzyme, gift from Novozymes; deglycosylated for crystals
T1 sequence (P56680 1-402): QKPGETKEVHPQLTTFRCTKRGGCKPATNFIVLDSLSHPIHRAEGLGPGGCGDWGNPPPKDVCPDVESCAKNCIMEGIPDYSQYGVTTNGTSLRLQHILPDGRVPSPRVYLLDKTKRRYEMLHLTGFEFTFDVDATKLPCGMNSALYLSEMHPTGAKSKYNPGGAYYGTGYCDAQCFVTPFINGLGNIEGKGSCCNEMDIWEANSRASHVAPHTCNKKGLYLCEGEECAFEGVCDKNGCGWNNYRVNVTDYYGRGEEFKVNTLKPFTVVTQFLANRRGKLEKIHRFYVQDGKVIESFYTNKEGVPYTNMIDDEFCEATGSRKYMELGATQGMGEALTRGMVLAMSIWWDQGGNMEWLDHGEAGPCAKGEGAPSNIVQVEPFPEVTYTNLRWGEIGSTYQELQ
Source text: continuous fluorescence inhibition kinetics with 4MU-GG, kapp vs [inhibitor]; also intact MS and crystal structure on HiCel7B

HiCel7B [2] = biological target: T1, HiCel7B; assay: continuous fluorescence inhibition kinetics with 4MU-GG, kapp vs [inhibitor]; format: biochemical; conditions: covalent, 50 mM sodium phosphate pH 7, 25 °C, 50 μM 4MU-GG, corrected for substrate KM, read-out: HiCel7B / K I
Source text: continuous fluorescence inhibition kinetics with 4MU-GG, kapp vs [inhibitor] on HiCel7B

CbhB = biological target: T2, CbhB (Aspergillus niger, UniProt Q9UVS8); assay: biotin-avidin pulldown, label-free LC-MS/MS quantification; format: binding; conditions: covalent; labelled compound; native secretome, 37 °C, 2 h
T2 construct: native, in xylan-grown A. niger secretome; about 80 kDa band
T2 sequence (Q9UVS8 22-536): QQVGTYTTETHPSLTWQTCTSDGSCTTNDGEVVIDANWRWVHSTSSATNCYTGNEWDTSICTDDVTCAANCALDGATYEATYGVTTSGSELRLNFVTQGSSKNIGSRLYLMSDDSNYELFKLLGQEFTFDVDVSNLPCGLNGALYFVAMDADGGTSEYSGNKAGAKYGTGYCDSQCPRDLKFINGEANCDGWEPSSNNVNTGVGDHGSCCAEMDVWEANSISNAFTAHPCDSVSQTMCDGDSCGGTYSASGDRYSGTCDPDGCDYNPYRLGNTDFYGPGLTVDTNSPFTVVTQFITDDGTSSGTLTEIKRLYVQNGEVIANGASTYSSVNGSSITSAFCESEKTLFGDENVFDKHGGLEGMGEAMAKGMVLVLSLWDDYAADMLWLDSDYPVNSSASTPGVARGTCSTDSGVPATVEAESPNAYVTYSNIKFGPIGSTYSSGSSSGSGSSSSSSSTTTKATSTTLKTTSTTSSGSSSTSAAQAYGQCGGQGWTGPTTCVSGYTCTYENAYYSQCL

XynC = biological target: T3, XynC (Aspergillus niger, UniProt A2QFV7); assay: as above; format: binding; conditions: covalent; labelled compound; native secretome, 37 °C, 2 h
T3 construct: gene xlnC; native, in xylan-grown A. niger secretome; about 35 kDa band

CbhA = biological target: T4, CbhA (Aspergillus niger, UniProt Q9UVS9); assay: as above; format: binding; conditions: covalent; labelled compound; native secretome, 37 °C, 2 h
T4 construct: native, in xylan-grown A. niger secretome; about 60 kDa band
T4 sequence (Q9UVS9 18-452): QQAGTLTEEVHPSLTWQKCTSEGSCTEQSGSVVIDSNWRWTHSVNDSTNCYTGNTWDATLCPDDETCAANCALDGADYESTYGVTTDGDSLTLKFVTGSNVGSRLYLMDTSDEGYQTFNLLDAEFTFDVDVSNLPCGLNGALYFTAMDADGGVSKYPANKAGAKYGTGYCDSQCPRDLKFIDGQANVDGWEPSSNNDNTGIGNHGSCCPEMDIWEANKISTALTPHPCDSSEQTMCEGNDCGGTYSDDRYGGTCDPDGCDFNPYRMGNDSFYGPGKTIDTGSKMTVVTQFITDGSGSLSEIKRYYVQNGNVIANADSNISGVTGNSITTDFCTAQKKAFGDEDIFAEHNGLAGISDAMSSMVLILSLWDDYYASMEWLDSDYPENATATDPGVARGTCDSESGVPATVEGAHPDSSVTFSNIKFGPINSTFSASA

[3] = substrate: Cc1cc(=O)oc2cc(O[C@@H]3O[C@H](CO)[C@@H](O[C@@H]4O[C@H](CO)[C@@H](O)[C@H](O)[C@H]4O)[C@H](O)[C@H]3O)ccc12; assay: fluorescence, 4-methylumbelliferone release; format: biochemical, Mycothermus thermophilus; conditions: 50 mM sodium phosphate pH 7, 25 °C, corrected for inner filter effect
Source text: fluorescence, 4-methylumbelliferone release on HiCel7B | The KM value for the interaction of HiCel7B with 4MU-GG under the assay conditions

Molecule: [N-]=[N+]=NCCOCCOCCOCC(=O)N[C@H]1[C@H](O)[C@@H](O)[C@H](O[C@H]2[C@H](O)[C@@H](O)[C@@H]3O[C@@H]3[C@@H]2CO)O[C@@H]1CO [compound 13, probe 13]
KI (inactivation) (HiCel7B [2]): 3.9 ± 0.3 µM

Molecule: O=C(CCCC[C@@H]1SC[C@@H]2NC(=O)N[C@@H]21)NCCOCCOCCOCC(=O)N[C@H]1[C@H](O)[C@@H](O)[C@H](O[C@H]2[C@H](O)[C@@H](O)[C@@H]3O[C@@H]3[C@@H]2CO)O[C@@H]1CO [compound 15, probe 15]
biotin-avidin pulldown, label-free LC-MS/MS quantification (CbhB): detected at elevated levels in the probe 15-treated samples relative to the negative control were CbhA, CbhB
biotin-avidin pulldown, label-free LC-MS/MS quantification (XynC): relative to the negative control were CbhA, CbhB, and XynC
biotin-avidin pulldown, label-free LC-MS/MS quantification (CbhA): detected at elevated levels in the probe 15-treated samples relative to the negative control were CbhA

B1: HiCel7B (Mycothermus thermophilus) (protein)
chain: QKPGETKEVHPQLTTFRCTKRGGCKPATNFIVLDSLSHPIHRAEGLGPGGCGDWGNPPPKDVCPDVESCAKNCIMEGIPDYSQYGVTTNGTSLRLQHILPDGRVPSPRVYLLDKTKRRYEMLHLTGFEFTFDVDATKLPCGMNSALYLSEMHPTGAKSKYNPGGAYYGTGYCDAQCFVTPFINGLGNIEGKGSCCNEMDIWEANSRASHVAPHTCNKKGLYLCEGEECAFEGVCDKNGCGWNNYRVNVTDYYGRGEEFKVNTLKPFTVVTQFLANRRGKLEKIHRFYVQDGKVIESFYTNKEGVPYTNMIDDEFCEATGSRKYMELGATQGMGEALTRGMVLAMSIWWDQGGNMEWLDHGEAGPCAKGEGAPSNIVQVEPFPEVTYTNLRWGEIGSTYQELQ
notes: purified enzyme, gift from Novozymes; deglycosylated for crystals
Km [3]: 76 µM

Now from value to molecule:

KI (inactivation) (HiCel7B [1]): 31 ± 4 µM
Molecule: OC[C@@H]1C(O[C@@H]2O[C@H](CO)[C@@H](O)[C@H](O)[C@H]2O)C(O)C(O)[C@@H]2O[C@H]12 (stereo partly shown) [compound 1, Cellobiose configured cyclophellitol]

KI (inactivation) (HiCel7B [2]; compound also hydrolysed internally by the enzyme): 1.9 ± 0.3 µM
Molecule: OC[C@@H]1C(O[C@@H]2O[C@H](CO)[C@@H](O[C@@H]3O[C@H](CO)[C@@H](O)[C@H](O)[C@H]3O)[C@H](O)[C@H]2O)C(O)C(O)[C@@H]2O[C@H]12 (stereo partly shown) [compound 5, inhibitor 5]
